Experimental data reported in patent US20120121591A1 (priority 2009, published 2012).

Experiments:
Assay type in all cases: cell-based
hKv1.3 = hKv1.3 (Homo sapiens, UniProt P22001); assay: cell-based; details: Kv1.3 (IWQ) IC50 (nM, Avg)
[1] = tested on: IL-2 secretion from T cells in human whole blood; details: read-out: WB (IL-2) IC50 (nM, Avg)
[2] = tested on: IFN-g secretion from T cells in human whole blood; details: read-out: WB (IFNg) IC50 (nM, Avg)

hKv1.3, sequence (P22001 whole entry): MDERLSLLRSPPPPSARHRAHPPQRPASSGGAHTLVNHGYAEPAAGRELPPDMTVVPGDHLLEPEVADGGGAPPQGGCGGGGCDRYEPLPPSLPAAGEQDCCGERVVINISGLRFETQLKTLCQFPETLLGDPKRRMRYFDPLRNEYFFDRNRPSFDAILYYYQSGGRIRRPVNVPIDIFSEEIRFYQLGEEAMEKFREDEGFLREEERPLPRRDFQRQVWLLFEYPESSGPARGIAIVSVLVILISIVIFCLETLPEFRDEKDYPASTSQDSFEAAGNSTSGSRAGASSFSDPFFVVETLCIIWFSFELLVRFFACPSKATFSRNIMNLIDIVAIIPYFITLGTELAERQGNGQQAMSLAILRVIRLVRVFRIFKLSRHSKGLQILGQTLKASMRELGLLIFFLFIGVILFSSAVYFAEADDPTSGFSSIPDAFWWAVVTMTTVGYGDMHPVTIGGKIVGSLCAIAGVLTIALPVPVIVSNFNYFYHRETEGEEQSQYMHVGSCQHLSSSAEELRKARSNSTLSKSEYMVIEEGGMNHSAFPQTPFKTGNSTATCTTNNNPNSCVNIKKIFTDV

Row | SMILES | IC50 (hKv1.3) | IC50 [1] | IC50 [2]
1 | CC[C@H](C)[C@@H]1NC(=O)[C@@H](NC(=O)[C@H](CCCNC(=N)N)NC(=O)[C@@H](N)CCCNC(=N)N)CSSC[C@@H](C(=O)O)NC(=O)[C@H]([C@@H](C)O)NC(=O)CNC(=O)[C@@H]2CSSC[C@@H]3NC(=O)[C@H](CCC(N)=O)NC(=O)[C@H](Cc4ccccc4)NC(=O)[C@H](C)NC(=O)[C@H]([C@@H](C)O)NC(=O)[C@H](CSSC[C@H](NC(=O)[C@H](Cc4ccccc4)NC(=O)[C@H](CO)NC(=O)[C@H](CC(C)C)NC(=O)[C@H](CCCNC(=N)N)NC(=O)[C@H](Cc4ccc(O)cc4)NC(=O)[C@H](CCCCN)NC(=O)[C@H](CCSC)NC(=O)[C@H](CO)NC(=O)[C@H](Cc4c[nH]cn4)NC(=O)[C@H](CCCCN)NC3=O)C(=O)N[C@@H](CCCNC(=N)N)C(=O)N[C@@H](CCCCN)C(=O)N[C@@H]([C@@H](C)O)C(=O)N2)NC(=O)[C@H](CCCNC(=N)N)NC(=O)[C@H](CO)NC(=O)[C@H](CCCCN)NC(=O)[C@@H]2CCCN2C(=O)[C@H]([C@@H](C)CC)NC(=O)[C@H]([C@@H](C)O)NC(=O)[C@H](CC(=O)O)NC1=O [[Arg2]ShK] | 0.074 nM | 0.097 nM | 0.087 nM
2 | CC[C@H](C)[C@@H]1NC(=O)[C@@H](NC(=O)[C@H](CO)NC(=O)[C@@H](N)CCCNC(=N)N)CSSC[C@@H](C(=O)O)NC(=O)[C@H]([C@@H](C)O)NC(=O)CNC(=O)[C@@H]2CSSC[C@@H]3NC(=O)[C@H](CCC(N)=O)NC(=O)[C@H](Cc4ccccc4)NC(=O)[C@H](C)NC(=O)[C@H]([C@@H](C)O)NC(=O)[C@H](CSSC[C@H](NC(=O)[C@H](Cc4ccccc4)NC(=O)[C@H](CO)NC(=O)[C@H](CC(C)C)NC(=O)[C@H](CCCNC(=N)N)NC(=O)[C@H](Cc4ccc(O)cc4)NC(=O)[C@H](CCCCN)NC(=O)[C@H](CCSC)NC(=O)[C@H](CO)NC(=O)[C@H](Cc4c[nH]cn4)NC(=O)[C@H](CCCCN)NC3=O)C(=O)N[C@@H](CCCCN)C(=O)N[C@@H](CCCCN)C(=O)N[C@@H]([C@@H](C)O)C(=O)N2)NC(=O)[C@H](CCCNC(=N)N)NC(=O)[C@H](CO)NC(=O)[C@H](CCCCN)NC(=O)[C@@H]2CCCN2C(=O)[C@H]([C@@H](C)CC)NC(=O)[C@H]([C@@H](C)O)NC(=O)[C@H](CC(=O)O)NC1=O [[Lys29]ShK] | 0.158 nM | 0.04 nM | 0.071 nM
3 | CC[C@H](C)[C@@H]1NC(=O)[C@@H](NC(=O)[C@H](CO)NC(=O)[C@@H](N)CCCNC(=N)N)CSSC[C@@H](C(=O)O)NC(=O)[C@H]([C@@H](C)O)NC(=O)CNC(=O)[C@@H]2CSSC[C@@H]3NC(=O)[C@H](CCC(N)=O)NC(=O)[C@H](Cc4ccccc4)NC(=O)[C@H](C)NC(=O)[C@H]([C@@H](C)O)NC(=O)[C@H](CSSC[C@H](NC(=O)[C@H](CCCCN)NC(=O)[C@H](CO)NC(=O)[C@H](CC(C)C)NC(=O)[C@H](CCCNC(=N)N)NC(=O)[C@H](Cc4ccc(O)cc4)NC(=O)[C@H](CCCCN)NC(=O)[C@H](CCSC)NC(=O)[C@H](CO)NC(=O)[C@H](Cc4c[nH]cn4)NC(=O)[C@H](CCCCN)NC3=O)C(=O)N[C@@H](CCCNC(=N)N)C(=O)N[C@@H](CCCCN)C(=O)N[C@@H]([C@@H](C)O)C(=O)N2)NC(=O)[C@H](CCCNC(=N)N)NC(=O)[C@H](CO)NC(=O)[C@H](CCCCN)NC(=O)[C@@H]2CCCN2C(=O)[C@H]([C@@H](C)CC)NC(=O)[C@H]([C@@H](C)O)NC(=O)[C@H](CC(=O)O)NC1=O [[Lys27]ShK] | 0.928 nM | 3.48 nM | 11.8 nM
4 | CC[C@H](C)[C@@H]1NC(=O)[C@@H](NC(=O)[C@H](CO)NC(=O)[C@@H](N)CCCNC(=N)N)CSSC[C@@H](C(=O)O)NC(=O)[C@H]([C@@H](C)O)NC(=O)CNC(=O)[C@@H]2CSSC[C@@H]3NC(=O)[C@H](CCC(N)=O)NC(=O)[C@H](Cc4ccccc4)NC(=O)[C@H](C)NC(=O)[C@H]([C@@H](C)O)NC(=O)[C@H](CSSC[C@H](NC(=O)[C@H](Cc4ccccc4)NC(=O)[C@H](CO)NC(=O)[C@H](CC(C)C)NC(=O)[C@H](CCCNC(=N)N)NC(=O)[C@H](Cc4ccc(O)cc4)NC(=O)[C@H](CCCCN)NC(=O)[C@H](CCSC)NC(=O)[C@H](CO)NC(=O)[C@H](Cc4c[nH]cn4)NC(=O)[C@H](CCCCN)NC3=O)C(=O)N[C@@H](CCCNC(=N)N)C(=O)N[C@@H](CCCCN)C(=O)N[C@@H]([C@@H](C)O)C(=O)N2)NC(=O)[C@H](CCCNC(=N)N)NC(=O)[C@H](CO)NC(=O)[C@H](CCCCN)NC(=O)[C@H](C)NC(=O)[C@H]([C@@H](C)CC)NC(=O)[C@H]([C@@H](C)O)NC(=O)[C@H](CC(=O)O)NC1=O [[Ala8]ShK] | 0.078 nM | 0.039 nM | 0.061 nM
5 | CC[C@@H]1NC(=O)[C@H](CO)NC(=O)[C@H](Cc2c[nH]cn2)NC(=O)[C@H](CCCCN)NC(=O)[C@@H]2CSSC[C@@H]3NC(=O)[C@H]([C@@H](C)O)NC(=O)[C@H](CCCCN)NC(=O)[C@H](CCCNC(=N)N)NC(=O)[C@H](CSSC[C@H](NC(=O)[C@H](CCCNC(=N)N)NC(=O)[C@H](CO)NC(=O)[C@H](CCCCN)NC(=O)[C@@H]4CCCN4C(=O)[C@H]([C@@H](C)CC)NC(=O)[C@H]([C@@H](C)O)NC(=O)[C@H](CC(=O)O)NC(=O)[C@H]([C@@H](C)CC)NC(=O)[C@@H](NC(=O)[C@H](CO)NC(=O)[C@@H](N)CCCNC(=N)N)CSSC[C@@H](C(N)=O)NC(=O)[C@H]([C@@H](C)O)NC(=O)CNC3=O)C(=O)N[C@@H]([C@@H](C)O)C(=O)N[C@@H](C)C(=O)N[C@@H](Cc3ccccc3)C(=O)N[C@@H](CCCCN)C(=O)N2)NC(=O)[C@H](Cc2ccccc2)NC(=O)[C@H](CO)NC(=O)[C@H](CC(C)C)NC(=O)[C@H](CCCNC(=N)N)NC(=O)[C@H](Cc2ccc(O)cc2)NC(=O)[C@H](CCCCN)NC1=O [[Lys16, Abu21]ShK-amide] | 0.246 nM | 1.2 nM | 1.53 nM
6 | CCCC[C@@H]1NC(=O)[C@H](CO)NC(=O)[C@H](Cc2c[nH]cn2)NC(=O)[C@H](CCCCN)NC(=O)[C@@H]2CSSC[C@@H]3NC(=O)[C@H]([C@@H](C)O)NC(=O)[C@H](CCCNC(=N)N)NC(=O)[C@H](CCCCN)NC(=O)[C@H](CSSC[C@H](NC(=O)[C@H](CCCNC(=N)N)NC(=O)[C@H](CO)NC(=O)[C@H](CCCCN)NC(=O)[C@@H]4CCCN4C(=O)[C@H]([C@@H](C)CC)NC(=O)[C@H]([C@@H](C)O)NC(=O)[C@H](CC(=O)O)NC(=O)[C@H](CCC(=O)O)NC(=O)[C@@H](NC(=O)[C@H](CO)NC(=O)[C@@H](N)CCCNC(=N)N)CSSC[C@@H](C(N)=O)NC(=O)[C@H]([C@@H](C)O)NC(=O)CNC3=O)C(=O)N[C@@H]([C@@H](C)O)C(=O)N[C@@H](C)C(=O)N[C@@H](Cc3ccccc3)C(=O)N[C@@H](CCCCN)C(=O)N2)NC(=O)[C@H](Cc2ccccc2)NC(=O)[C@H](Cc2cccc3ccccc23)NC(=O)[C@H](CC(C)C)NC(=O)[C@H](CCCNC(=N)N)NC(=O)[C@H](Cc2ccc(O)cc2)NC(=O)[C@H](CCCCN)NC1=O | 1.66 nM | 10.7 nM | 17.4 nM
7 | CC[C@H](C)[C@@H]1NC(=O)[C@@H](NC(=O)[C@H](CO)NC(=O)[C@@H](N)CCCNC(=N)N)CSSC[C@@H](C(=O)O)NC(=O)[C@H]([C@@H](C)O)NC(=O)CNC(=O)[C@@H]2CSSC[C@@H]3NC(=O)[C@H](CCC(N)=O)NC(=O)[C@H](Cc4ccccc4)NC(=O)[C@H](C)NC(=O)[C@H]([C@@H](C)O)NC(=O)[C@H](CSSC[C@H](NC(=O)[C@H](Cc4ccccc4)NC(=O)[C@H](CO)NC(=O)[C@H](CC(C)C)NC(=O)[C@H](CCCNC(=N)N)NC(=O)[C@H](Cc4ccc(O)cc4)NC(=O)[C@H](CCCCN)NC(=O)[C@H](CCSC)NC(=O)[C@H](CCCCN)NC(=O)[C@H](Cc4c[nH]cn4)NC(=O)[C@H](CCCCN)NC3=O)C(=O)N[C@@H](CCCNC(=N)N)C(=O)N[C@@H](CCCCN)C(=O)N[C@@H]([C@@H](C)O)C(=O)N2)NC(=O)[C@H](CCCNC(=N)N)NC(=O)[C@H](CO)NC(=O)[C@H](CCCCN)NC(=O)[C@@H]2CCCN2C(=O)[C@H]([C@@H](C)CC)NC(=O)[C@H]([C@@H](C)O)NC(=O)[C@H](CC(=O)O)NC1=O [[Lys20]ShK] | 1.33 nM | 0.108 nM | 0.192 nM
8 | CC[C@H](C)[C@@H]1NC(=O)[C@@H](NC(=O)[C@H](CO)NC(=O)[C@@H](N)CCCNC(=N)N)CSSC[C@@H](C(=O)O)NC(=O)[C@H]([C@@H](C)O)NC(=O)CNC(=O)[C@@H]2CSSC[C@@H]3NC(=O)[C@H](CCC(N)=O)NC(=O)[C@H](Cc4ccccc4)NC(=O)[C@H](CCCCN)NC(=O)[C@H]([C@@H](C)O)NC(=O)[C@H](CSSC[C@H](NC(=O)[C@H](Cc4ccccc4)NC(=O)[C@H](CO)NC(=O)[C@H](CC(C)C)NC(=O)[C@H](CCCNC(=N)N)NC(=O)[C@H](Cc4ccc(O)cc4)NC(=O)[C@H](CCCCN)NC(=O)[C@H](CCSC)NC(=O)[C@H](CO)NC(=O)[C@H](Cc4c[nH]cn4)NC(=O)[C@H](CCCCN)NC3=O)C(=O)N[C@@H](CCCNC(=N)N)C(=O)N[C@@H](CCCCN)C(=O)N[C@@H]([C@@H](C)O)C(=O)N2)NC(=O)[C@H](CCCNC(=N)N)NC(=O)[C@H](CO)NC(=O)[C@H](CCCCN)NC(=O)[C@@H]2CCCN2C(=O)[C@H]([C@@H](C)CC)NC(=O)[C@H]([C@@H](C)O)NC(=O)[C@H](CC(=O)O)NC1=O [[Lys14]ShK] | 0.073 nM | 0.075 nM | 0.202 nM
9 | CCCC[C@@H]1NC(=O)[C@H](CO)NC(=O)[C@H](Cc2c[nH]cn2)NC(=O)[C@H](CCCCN)NC(=O)[C@@H]2CSSC[C@@H]3NC(=O)[C@H]([C@@H](C)O)NC(=O)[C@H](CCCCN)NC(=O)[C@H](CCCNC(=N)N)NC(=O)[C@H](CSSC[C@H](NC(=O)[C@H](CCCNC(=N)N)NC(=O)[C@H](CO)NC(=O)[C@H](CCCCN)NC(=O)[C@@H]4CCCN4C(=O)[C@H]([C@@H](C)CC)NC(=O)[C@H]([C@@H](C)O)NC(=O)[C@H](CC(=O)O)NC(=O)[C@H]([C@@H](C)CC)NC(=O)[C@@H](NC(=O)[C@H](CO)NC(=O)[C@@H](N)CCCNC(=N)N)CSSC[C@@H](C(=O)N[C@@H](C)C(=O)O)NC(=O)[C@H]([C@@H](C)O)NC(=O)CNC3=O)C(=O)N[C@@H]([C@@H](C)O)C(=O)N[C@@H](C)C(=O)N[C@@H](Cc3ccccc3)C(=O)N[C@@H](CCCCN)C(=O)N2)NC(=O)[C@H](Cc2ccccc2)NC(=O)[C@H](CO)NC(=O)[C@H](CC(C)C)NC(=O)[C@H](CCCNC(=N)N)NC(=O)[C@H](Cc2ccc(O)cc2)NC(=O)[C@H](CCCCN)NC1=O [[Lys16,N1e21]ShK-Ala] | 33.3 nM | 0.305 nM | 0.515 nM
